The kinase profiling compilation of Christmann-Franck et al. (2016)
Values belong to the compound of their own block, whether it stands above or below them.

How the values were obtained:
Assay in all cases: Caliper, Mobility shift assay off-chip
AKT2 (human) = AKT2 (human) (UniProt P31751)
BRSK1 (human) = BRSK1 (human) (UniProt Q8TDC3)
CDK9 (human) = CDK9 (human) (UniProt P50750)
CSNK2A1 (human) = CSNK2A1 (human) (UniProt P68400)
CSNK2A2 (human) = CSNK2A2 (human) (UniProt P19784)
EPHA4 (human) = EPHA4 (human) (UniProt P54764)
EPHB2 (human) = EPHB2 (human) (UniProt P29323)
FGFR2 (human) = FGFR2 (human) (UniProt P21802)
FLT1 (human) = FLT1 (human) (UniProt P17948)
FLT3 (human) = FLT3 (human) (UniProt P36888)
IKBKB (human) = IKBKB (human) (UniProt O14920)
JAK1 JH1 JH2 (human) = JAK1 JH1 JH2 (human) (UniProt P23458)
LATS2 (human) = LATS2 (human) (UniProt Q9NRM7)
MAP4K2 (human) = MAP4K2 (human) (UniProt Q12851)
MAPK1 (human) = MAPK1 (human) (UniProt P28482)
MAPK11 (human) = MAPK11 (human) (UniProt Q15759)
MAPK8 (human) = MAPK8 (human) (UniProt P45983)
MAPKAPK5 (human) = MAPKAPK5 (human) (UniProt Q8IW41)
MERTK (human) = MERTK (human) (UniProt Q12866)
MST4 (human) = MST4 (human) (UniProt Q9P289)
NIM1 (human) = NIM1 (human) (UniProt Q8IY84)
NTRK2 (human) = NTRK2 (human) (UniProt Q16620)
NUAK2 (human) = NUAK2 (human) (UniProt Q9H093)
PAK3 (human) = PAK3 (human) (UniProt O75914)
PAK4 (human) = PAK4 (human) (UniProt O96013)
PBK (human) = PBK (human) (UniProt Q96KB5)
PHKG2 (human) = PHKG2 (human) (UniProt P15735)
PIM1 (human) = PIM1 (human) (UniProt P11309)
PRKACG (human) = PRKACG (human) (UniProt P22612)
PRKCZ (human) = PRKCZ (human) (UniProt Q05513)
SRC (human) = SRC (human) (UniProt P12931)
STK24 (human) = STK24 (human) (UniProt Q9Y6E0)
TSSK1B (human) = TSSK1B (human) (UniProt Q9BXA7)
ZAP70 (human) = ZAP70 (human) (UniProt P43403)

LATS2 (human), sequence (Q9NRM7 whole entry, looked up): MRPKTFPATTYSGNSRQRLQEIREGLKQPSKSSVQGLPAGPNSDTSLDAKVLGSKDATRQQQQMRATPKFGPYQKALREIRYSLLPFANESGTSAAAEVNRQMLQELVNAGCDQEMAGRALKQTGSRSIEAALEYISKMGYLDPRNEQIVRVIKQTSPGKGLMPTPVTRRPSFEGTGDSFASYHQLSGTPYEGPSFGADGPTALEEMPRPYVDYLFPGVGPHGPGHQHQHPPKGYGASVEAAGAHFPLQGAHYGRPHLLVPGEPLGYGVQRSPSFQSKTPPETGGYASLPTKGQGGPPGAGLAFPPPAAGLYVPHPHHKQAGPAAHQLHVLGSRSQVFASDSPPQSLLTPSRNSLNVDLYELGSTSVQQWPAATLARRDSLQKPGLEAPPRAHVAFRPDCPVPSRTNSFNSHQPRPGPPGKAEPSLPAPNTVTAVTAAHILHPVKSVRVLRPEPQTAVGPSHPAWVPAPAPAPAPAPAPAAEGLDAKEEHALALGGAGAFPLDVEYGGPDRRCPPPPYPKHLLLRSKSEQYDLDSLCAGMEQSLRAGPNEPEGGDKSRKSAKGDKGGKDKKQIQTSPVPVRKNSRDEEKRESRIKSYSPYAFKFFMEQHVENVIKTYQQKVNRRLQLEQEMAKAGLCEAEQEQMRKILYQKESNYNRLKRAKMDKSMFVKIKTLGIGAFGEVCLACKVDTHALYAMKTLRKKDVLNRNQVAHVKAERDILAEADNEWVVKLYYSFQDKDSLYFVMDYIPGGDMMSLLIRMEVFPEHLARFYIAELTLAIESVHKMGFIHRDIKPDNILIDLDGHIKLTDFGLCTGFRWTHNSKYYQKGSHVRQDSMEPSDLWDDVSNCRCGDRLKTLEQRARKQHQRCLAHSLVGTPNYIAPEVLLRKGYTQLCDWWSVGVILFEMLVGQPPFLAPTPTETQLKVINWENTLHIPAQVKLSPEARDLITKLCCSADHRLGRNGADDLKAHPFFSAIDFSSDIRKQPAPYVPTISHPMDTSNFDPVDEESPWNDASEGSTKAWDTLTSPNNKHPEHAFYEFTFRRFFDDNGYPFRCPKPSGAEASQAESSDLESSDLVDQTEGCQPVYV
PHKG2 (human), sequence (P15735 whole entry, looked up): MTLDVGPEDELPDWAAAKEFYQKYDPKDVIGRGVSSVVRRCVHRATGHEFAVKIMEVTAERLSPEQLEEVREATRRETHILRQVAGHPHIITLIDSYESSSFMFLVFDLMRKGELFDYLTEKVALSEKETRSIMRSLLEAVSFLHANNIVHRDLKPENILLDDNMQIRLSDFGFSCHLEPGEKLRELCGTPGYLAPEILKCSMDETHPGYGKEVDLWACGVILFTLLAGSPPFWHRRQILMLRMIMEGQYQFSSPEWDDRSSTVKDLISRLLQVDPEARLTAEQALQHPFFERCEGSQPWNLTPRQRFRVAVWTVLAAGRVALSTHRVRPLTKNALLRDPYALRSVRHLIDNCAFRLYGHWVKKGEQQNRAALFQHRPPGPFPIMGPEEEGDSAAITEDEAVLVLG
CSNK2A1 (human), sequence (P68400 whole entry, looked up): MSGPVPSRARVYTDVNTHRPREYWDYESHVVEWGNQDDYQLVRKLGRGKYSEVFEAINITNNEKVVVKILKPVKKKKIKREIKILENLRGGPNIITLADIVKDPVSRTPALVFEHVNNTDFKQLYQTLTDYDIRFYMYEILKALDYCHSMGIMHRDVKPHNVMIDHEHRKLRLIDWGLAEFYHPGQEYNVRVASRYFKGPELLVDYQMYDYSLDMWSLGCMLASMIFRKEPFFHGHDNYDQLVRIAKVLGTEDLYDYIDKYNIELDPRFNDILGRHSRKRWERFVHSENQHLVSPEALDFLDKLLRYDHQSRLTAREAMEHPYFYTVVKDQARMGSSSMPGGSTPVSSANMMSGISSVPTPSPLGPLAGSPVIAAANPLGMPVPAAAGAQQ
MST4 (human), sequence (Q9P289 whole entry, looked up): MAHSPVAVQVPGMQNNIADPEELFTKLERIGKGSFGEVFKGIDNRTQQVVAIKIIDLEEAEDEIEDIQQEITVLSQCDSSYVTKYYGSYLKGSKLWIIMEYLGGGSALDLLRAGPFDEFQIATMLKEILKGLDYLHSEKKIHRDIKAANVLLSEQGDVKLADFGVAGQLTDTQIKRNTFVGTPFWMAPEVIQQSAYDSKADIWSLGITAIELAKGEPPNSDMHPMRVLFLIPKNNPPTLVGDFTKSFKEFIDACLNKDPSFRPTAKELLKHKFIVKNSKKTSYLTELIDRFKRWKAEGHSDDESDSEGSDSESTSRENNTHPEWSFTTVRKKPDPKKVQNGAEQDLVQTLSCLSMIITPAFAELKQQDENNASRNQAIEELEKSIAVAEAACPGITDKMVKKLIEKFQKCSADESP
EPHA4 (human), sequence (P54764 whole entry, looked up): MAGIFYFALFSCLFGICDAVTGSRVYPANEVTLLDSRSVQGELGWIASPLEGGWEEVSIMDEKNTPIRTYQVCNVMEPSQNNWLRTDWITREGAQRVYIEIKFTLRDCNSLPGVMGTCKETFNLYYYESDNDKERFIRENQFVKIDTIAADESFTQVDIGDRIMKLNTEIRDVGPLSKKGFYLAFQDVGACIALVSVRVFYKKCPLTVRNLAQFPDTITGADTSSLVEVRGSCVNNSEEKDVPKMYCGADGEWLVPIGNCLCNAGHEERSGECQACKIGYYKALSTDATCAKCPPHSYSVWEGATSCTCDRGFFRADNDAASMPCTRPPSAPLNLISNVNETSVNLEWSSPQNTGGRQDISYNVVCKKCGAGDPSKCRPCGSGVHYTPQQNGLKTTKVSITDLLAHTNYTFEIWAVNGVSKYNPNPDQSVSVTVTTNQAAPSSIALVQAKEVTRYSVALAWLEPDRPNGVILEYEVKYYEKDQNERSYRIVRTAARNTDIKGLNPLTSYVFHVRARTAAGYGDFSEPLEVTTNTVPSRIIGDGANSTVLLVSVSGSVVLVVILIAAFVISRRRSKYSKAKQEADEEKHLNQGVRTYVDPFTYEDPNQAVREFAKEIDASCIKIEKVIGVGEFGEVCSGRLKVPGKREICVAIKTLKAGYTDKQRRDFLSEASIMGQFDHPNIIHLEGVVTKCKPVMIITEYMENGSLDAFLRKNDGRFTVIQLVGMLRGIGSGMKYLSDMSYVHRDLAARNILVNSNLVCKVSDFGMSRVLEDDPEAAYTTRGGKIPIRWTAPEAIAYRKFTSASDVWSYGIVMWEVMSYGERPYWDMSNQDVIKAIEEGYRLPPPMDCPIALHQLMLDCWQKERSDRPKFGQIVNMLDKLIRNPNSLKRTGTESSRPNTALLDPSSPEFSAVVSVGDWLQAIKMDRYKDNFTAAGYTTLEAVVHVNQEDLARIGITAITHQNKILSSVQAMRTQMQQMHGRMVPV
EPHB2 (human), sequence (P29323 whole entry, looked up): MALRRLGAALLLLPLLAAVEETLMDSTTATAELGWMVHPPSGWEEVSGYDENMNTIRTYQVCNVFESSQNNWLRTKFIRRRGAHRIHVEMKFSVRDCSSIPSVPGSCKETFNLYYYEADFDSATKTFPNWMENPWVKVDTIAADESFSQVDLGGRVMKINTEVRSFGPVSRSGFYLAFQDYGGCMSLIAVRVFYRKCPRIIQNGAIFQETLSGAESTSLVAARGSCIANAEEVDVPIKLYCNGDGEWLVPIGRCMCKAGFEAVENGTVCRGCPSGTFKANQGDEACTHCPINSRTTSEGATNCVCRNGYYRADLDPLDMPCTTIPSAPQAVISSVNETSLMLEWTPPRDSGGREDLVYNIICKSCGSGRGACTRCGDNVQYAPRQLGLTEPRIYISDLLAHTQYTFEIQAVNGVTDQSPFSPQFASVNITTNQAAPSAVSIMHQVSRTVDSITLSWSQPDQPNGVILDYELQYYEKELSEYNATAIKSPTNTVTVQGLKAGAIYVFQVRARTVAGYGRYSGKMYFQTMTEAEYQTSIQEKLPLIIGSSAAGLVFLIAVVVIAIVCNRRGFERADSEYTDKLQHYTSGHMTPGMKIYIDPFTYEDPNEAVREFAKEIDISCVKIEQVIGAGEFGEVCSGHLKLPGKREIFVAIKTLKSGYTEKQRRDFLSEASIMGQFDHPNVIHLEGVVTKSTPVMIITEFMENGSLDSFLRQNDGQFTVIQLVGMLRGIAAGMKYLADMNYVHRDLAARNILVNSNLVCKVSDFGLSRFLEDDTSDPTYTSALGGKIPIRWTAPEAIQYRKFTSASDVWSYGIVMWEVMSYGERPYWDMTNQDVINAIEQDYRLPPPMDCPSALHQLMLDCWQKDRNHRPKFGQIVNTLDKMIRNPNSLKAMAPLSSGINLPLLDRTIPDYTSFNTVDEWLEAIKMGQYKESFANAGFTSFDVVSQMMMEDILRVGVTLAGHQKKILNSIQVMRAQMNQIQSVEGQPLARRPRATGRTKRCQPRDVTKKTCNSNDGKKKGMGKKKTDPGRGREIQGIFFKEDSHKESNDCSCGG
CSNK2A2 (human), sequence (P19784 whole entry, looked up): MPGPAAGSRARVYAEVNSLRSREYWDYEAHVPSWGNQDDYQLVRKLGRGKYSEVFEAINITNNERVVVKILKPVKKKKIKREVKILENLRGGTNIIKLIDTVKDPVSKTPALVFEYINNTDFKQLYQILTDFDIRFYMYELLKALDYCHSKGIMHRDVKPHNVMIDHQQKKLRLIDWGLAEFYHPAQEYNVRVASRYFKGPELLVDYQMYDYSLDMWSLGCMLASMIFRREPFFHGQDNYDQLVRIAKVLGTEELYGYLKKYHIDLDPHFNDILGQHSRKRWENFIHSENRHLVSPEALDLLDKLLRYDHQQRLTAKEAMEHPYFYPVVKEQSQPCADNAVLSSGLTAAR
PBK (human), sequence (Q96KB5 whole entry, looked up): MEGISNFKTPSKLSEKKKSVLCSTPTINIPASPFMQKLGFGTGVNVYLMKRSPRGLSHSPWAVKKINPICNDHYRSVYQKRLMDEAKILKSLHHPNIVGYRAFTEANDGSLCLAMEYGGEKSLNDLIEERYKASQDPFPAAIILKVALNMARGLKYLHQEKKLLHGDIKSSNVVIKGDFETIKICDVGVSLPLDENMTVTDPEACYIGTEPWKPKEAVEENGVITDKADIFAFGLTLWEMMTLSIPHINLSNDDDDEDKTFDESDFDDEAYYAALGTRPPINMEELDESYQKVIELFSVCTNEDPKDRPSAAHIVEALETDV

inhibition (AKT2 (human); compound 0.02 µM): 6.9%
inhibition (AKT2 (human); compound 0.2 µM): -0.1%
inhibition (BRSK1 (human); compound 0.02 µM): 2.2%
inhibition (BRSK1 (human); compound 0.2 µM): 7.5%
inhibition (CDK9 (human); compound 0.02 µM): -3.2%
inhibition (CDK9 (human); compound 0.2 µM): -3.3%
inhibition (CSNK2A1 (human); compound 0.02 µM): -0.1%
inhibition (CSNK2A1 (human); compound 0.2 µM): -0.5%
inhibition (CSNK2A2 (human); compound 0.02 µM): -0.7%
inhibition (CSNK2A2 (human); compound 0.2 µM): -1.2%
inhibition (EPHA4 (human); compound 0.02 µM): -4.1%
inhibition (EPHA4 (human); compound 0.2 µM): -2.4%
inhibition (EPHB2 (human); compound 0.02 µM): -4.3%
inhibition (EPHB2 (human); compound 0.2 µM): 8.7%
inhibition (FGFR2 (human); compound 0.02 µM): 71.8%
inhibition (FGFR2 (human); compound 0.2 µM): 98.3%
inhibition (FLT1 (human); compound 0.02 µM): 91.6%
inhibition (FLT1 (human); compound 0.2 µM): 102%
inhibition (FLT3 (human); compound 0.02 µM): 10%
inhibition (FLT3 (human); compound 0.2 µM): 9.8%
inhibition (IKBKB (human); compound 0.02 µM): -4%
inhibition (IKBKB (human); compound 0.2 µM): -4.5%
inhibition (JAK1 JH1 JH2 (human); compound 0.02 µM): -2.9%
inhibition (JAK1 JH1 JH2 (human); compound 0.2 µM): -3.6%
inhibition (LATS2 (human); compound 0.02 µM): -7.6%
inhibition (LATS2 (human); compound 0.2 µM): -0.9%
inhibition (MAP4K2 (human); compound 0.02 µM): 2.6%
inhibition (MAP4K2 (human); compound 0.2 µM): 18.4%
inhibition (MAPK1 (human); compound 0.02 µM): -6.5%
inhibition (MAPK1 (human); compound 0.2 µM): -9%
inhibition (MAPK11 (human); compound 0.02 µM): -2.6%
inhibition (MAPK11 (human); compound 0.2 µM): -3.5%
inhibition (MAPK8 (human); compound 0.02 µM): -2.8%
inhibition (MAPK8 (human); compound 0.2 µM): -2.5%
inhibition (MAPKAPK5 (human); compound 0.02 µM): 2%
inhibition (MAPKAPK5 (human); compound 0.2 µM): 0.1%
inhibition (MERTK (human); compound 0.02 µM): 3.6%
inhibition (MERTK (human); compound 0.2 µM): 5.9%
inhibition (MST4 (human); compound 0.02 µM): -7.3%
inhibition (MST4 (human); compound 0.2 µM): -3%
inhibition (NIM1 (human); compound 0.02 µM): 15.8%
inhibition (NIM1 (human); compound 0.2 µM): -9.8%
inhibition (NTRK2 (human); compound 0.02 µM): 8.3%
inhibition (NUAK2 (human); compound 0.02 µM): 8.9%
inhibition (NUAK2 (human); compound 0.2 µM): -17.5%
inhibition (PAK3 (human); compound 0.02 µM): -1.7%
inhibition (PAK3 (human); compound 0.2 µM): 3.3%
inhibition (PAK4 (human); compound 0.02 µM): 6.5%
inhibition (PAK4 (human); compound 0.2 µM): 0%
inhibition (PBK (human); compound 0.02 µM): 0.1%
inhibition (PBK (human); compound 0.2 µM): -6.1%
inhibition (PHKG2 (human); compound 0.02 µM): -2.9%
inhibition (PHKG2 (human); compound 0.2 µM): -3.3%
inhibition (PIM1 (human); compound 0.02 µM): -2.8%
inhibition (PIM1 (human); compound 0.2 µM): -8.3%
inhibition (PRKACG (human); compound 0.02 µM): -4.7%
inhibition (PRKACG (human); compound 0.2 µM): -1.4%
inhibition (PRKCZ (human); compound 0.02 µM): 10.1%
inhibition (PRKCZ (human); compound 0.2 µM): 1.5%
Ki (SRC (human)): 83.5 nM
inhibition (SRC (human); compound 0.2 µM): 58.1%
inhibition (STK24 (human); compound 0.02 µM): 2%
inhibition (STK24 (human); compound 0.2 µM): 12.8%
inhibition (TSSK1B (human); compound 0.02 µM): -3.6%
inhibition (TSSK1B (human); compound 0.2 µM): -3.6%
inhibition (ZAP70 (human); compound 0.02 µM): 3.1%
inhibition (ZAP70 (human); compound 0.2 µM): 3.4%
SMILES: COc1cc2c(Oc3ccc4[nH]c(C)cc4c3F)ncnc2cc1OCCCN1CCCC1

inhibition (AKT2 (human); compound 0.001 µM): 0.8%
inhibition (AKT2 (human); compound 0.02 µM): -4.1%
inhibition (BRSK1 (human); compound 0.001 µM): -2.4%
inhibition (BRSK1 (human); compound 0.02 µM): 20.1%
inhibition (CDK9 (human); compound 0.001 µM): -4.7%
inhibition (CDK9 (human); compound 0.02 µM): -6.4%
inhibition (CSNK2A1 (human); compound 0.001 µM): -3.2%
inhibition (CSNK2A1 (human); compound 0.02 µM): -4.4%
inhibition (CSNK2A2 (human); compound 0.001 µM): -3.1%
inhibition (CSNK2A2 (human); compound 0.02 µM): -5.6%
inhibition (EPHA4 (human); compound 0.001 µM): -6.8%
inhibition (EPHA4 (human); compound 0.02 µM): -4.3%
inhibition (EPHB2 (human); compound 0.001 µM): -6.4%
inhibition (EPHB2 (human); compound 0.02 µM): -5.2%
inhibition (FGFR2 (human); compound 0.001 µM): 10.6%
inhibition (FGFR2 (human); compound 0.02 µM): 54.1%
inhibition (FLT1 (human); compound 0.001 µM): 25.3%
inhibition (FLT1 (human); compound 0.02 µM): 99.3%
inhibition (FLT3 (human); compound 0.02 µM): 14.8%
inhibition (IKBKB (human); compound 0.001 µM): 5.5%
inhibition (IKBKB (human); compound 0.02 µM): 3.1%
inhibition (JAK1 JH1 JH2 (human); compound 0.001 µM): -7.4%
inhibition (JAK1 JH1 JH2 (human); compound 0.02 µM): -3.3%
inhibition (LATS2 (human); compound 0.02 µM): -2.3%
inhibition (MAP4K2 (human); compound 0.001 µM): -2.6%
inhibition (MAP4K2 (human); compound 0.02 µM): 4.8%
inhibition (MAPK1 (human); compound 0.001 µM): -5.9%
inhibition (MAPK1 (human); compound 0.02 µM): -7.2%
inhibition (MAPK11 (human); compound 0.001 µM): -2.8%
inhibition (MAPK11 (human); compound 0.02 µM): -3.8%
inhibition (MAPK8 (human); compound 0.001 µM): -3.3%
inhibition (MAPK8 (human); compound 0.02 µM): -3.5%
inhibition (MAPKAPK5 (human); compound 0.001 µM): -1.5%
inhibition (MAPKAPK5 (human); compound 0.02 µM): 1.6%
inhibition (MERTK (human); compound 0.001 µM): 1%
inhibition (MERTK (human); compound 0.02 µM): 3.9%
inhibition (MST4 (human); compound 0.001 µM): -4.6%
inhibition (MST4 (human); compound 0.02 µM): -8%
inhibition (NIM1 (human); compound 0.001 µM): 13.8%
inhibition (NIM1 (human); compound 0.02 µM): -10.4%
inhibition (NTRK2 (human); compound 0.001 µM): 5.8%
inhibition (NTRK2 (human); compound 0.02 µM): 10.5%
inhibition (NUAK2 (human); compound 0.001 µM): 9.9%
inhibition (NUAK2 (human); compound 0.02 µM): -0.7%
inhibition (PAK3 (human); compound 0.001 µM): -1.3%
inhibition (PAK3 (human); compound 0.02 µM): 7.8%
inhibition (PAK4 (human); compound 0.001 µM): 3.3%
inhibition (PAK4 (human); compound 0.02 µM): 0.8%
inhibition (PBK (human); compound 0.001 µM): -7.6%
inhibition (PBK (human); compound 0.02 µM): -7.4%
inhibition (PHKG2 (human); compound 0.001 µM): -6.2%
inhibition (PHKG2 (human); compound 0.02 µM): -3.3%
inhibition (PIM1 (human); compound 0.001 µM): -5.1%
inhibition (PIM1 (human); compound 0.02 µM): -3.4%
inhibition (PRKACG (human); compound 0.001 µM): -7.2%
inhibition (PRKACG (human); compound 0.02 µM): -7.8%
inhibition (PRKCZ (human); compound 0.001 µM): 12%
inhibition (PRKCZ (human); compound 0.02 µM): -4.6%
inhibition (SRC (human); compound 0.001 µM): 1.3%
inhibition (SRC (human); compound 0.02 µM): -0.2%
inhibition (STK24 (human); compound 0.001 µM): 2.8%
inhibition (STK24 (human); compound 0.02 µM): -1.1%
inhibition (TSSK1B (human); compound 0.001 µM): -4.2%
inhibition (TSSK1B (human); compound 0.02 µM): -3.6%
inhibition (ZAP70 (human); compound 0.001 µM): -0.5%
inhibition (ZAP70 (human); compound 0.02 µM): 2.7%
SMILES: CNC(=O)c1ccccc1Sc1ccc2c(/C=C/c3ccccn3)n[nH]c2c1
